Series [1] concerns mesangial cell line (1097). Put plainly: TGF-β induced 3H-proline incorporation in cultured rat mesangial cells (Example 2). Type of series: cell-based, Sprague-Dawley rats. The conditions noted are these: renal mesangial cells, from 30 to 100 μM. Here is the method:
The anti-fibrotic effects of 3-methoxy-4-propargyloxybenzaldehyde (FT011) in a renal cell line were tested by measuring proline incorporation after transforming growth factor-β stimulation.
A well-characterized cloned mesangial cell line (1097) isolated from Sprague-Dawley rats was used between passages 30 and 40. Cells were cultured in Dulbecco's Modified Eagle's (DME) medium (Invitrogen, Grand Island, N.Y.) with heat-inactivated fetal bovine serum (FBS), 100 u/mL penicillin and 100 ug/mL streptomycin in a humidified 5% CO2 atmosphere at 37° C.
To compare the effects of tranilast and FT011 on collagen production in vitro, incorporation of tritiated proline was used. Mesangial cells were plated at low density into 24-well culture plates in DME/5% FBS and allowed to adhere overnight. The subconfluent cells were starved overnight in DME/0.5% FBS and […] L-ascorbic acid (Sigma-Aldrich). Tranilast or FT011 was then added to the wells, followed 4 hours later by L-[2,3,4,5-^3H]-proline, 0.5 μCi/well (Amersham) and TGF-β1, 5 ng/ml (R & D systems). Mesangial cells were harvested 48 hours post-stimulation, washed three times with ice cold PBS, and incubated with 10% trichloroacetic acid (TCA) for 30 minutes on ice, followed by a wash in ice cold 10% TCA. Cells were then solubilised in […] 1M NaOH. […]

Series [2] is described as follows: Pilot study (toxicity assessment), 2 weeks oral gavage. In kind it is in vivo, Sprague-Dawley (SD) rats. The conditions noted are these: 2 weeks. As for the experimental part: A total of twenty male Sprague-Dawley (SD) rats weighing 200-250 g were randomised to either FT011 (Fibrotech Therapeutics Pty Ltd, Melbourne, Australia) or Tranilast (Pharm Chemical, Shanghai Lansheng Corporation, China) at the dose of 50 mg, 100 mg, 200 mg and 400 mg/kg/day by gavage twice daily (n=2-3 per group). A control group of animals were gavaged with vehicle (1% carboxy methyl cellulose). The study was conducted for 2 weeks. Animals were bled daily at one, four, and eight hours after oral gavage to measure the plasma concentration. Serum was also collected to assess renal and liver function at the end of the study (plasma creatine and urate, ALT and bilirubin). Rats were individually housed in metabolic cages at the end of the study, habituated for 2 to 3 hours, and urine collected over 24 hours. Animals continued to have free access to tap water and standard laboratory chow during this period. The biochemistry tests performed at the department of pathology, St Vincent's hospital. Major organs including lung, heart, liver, spleen and kidney were harvested and immersed fix with 10% neutral buffered formalin and then embedded paraffin for subsequent light microscope examination.

The test system of series [3] is cardiac fibroblasts. The conditions noted are these: experimental model of diabetic cardiac disease [15]; cited from earlier work.
For series [4] the following is noted: patients with Gilbert's syndrome UGT1A1 variant [19]; cited from earlier work.
The test system of series [5] is rat mesangial cell line. The series is described as follows: TGF-β stimulated 3H-proline incorporation in mesangial cells (Example 5). Type of series: cell-based.
The subject of series [6] is rat mesangial cell line. Put plainly: Effect on mesangial cell appearance (visual monitoring during proline assay). In kind it is cell-based.
Series [7] concerns Mesangial cells. The series is described as follows: Mesangial cell MTT assay with TGF-β. Type of series: cell-based, rat. The note with it: @ 30 μM; suppressed = reduced cell viability. Here is the method:
Mesangial cells are plated at 15000 cells per well into 96-well culture dishes in DMEM/10% FBS and allowed to adhere overnight. The subconfluent cells are starved overnight in DMEM/0.1% FBS, prior to 4 hours of pre-treatment with or without tranilast or the FT compounds. Following the addition of 5 ng/mL rhTGF-β1, the cells are incubated in a humidified 5% CO2 atmosphere at 37° C. for 44 hours. Control wells have the compounds but no TGF-β1 added. The culture medium is removed from each well and 100 uL MTT (0.5 mg/mL) in starve medium is added to each well. The plates are incubated for a further 4 hours at 37° C. The culture medium is then removed and replaced with 100 μL isopropanol and incubated at 37° C. for 20 to 30 minutes, until the blue formazan crystals have dissolved. The absorbance is measured at a wavelength of 570 nm with background subtraction of 690 nm.
Suppressed MTT Result Indicates Reduced Cell Viability
In general terms: Tetrazolium assays rely on reduction of a dye to a coloured formazan, in cell work by metabolically active cells.

For series [8], the system named is Neonatal rat cardiac fibroblasts (NCFs). Put plainly: NCF TGF-β collagen synthesis, 3H-proline incorporation (Example 6). Type of series: cell-based. As for the experimental part: Neonatal SD rat cardiac myocytes (NCMs) and fibroblasts (NCFs) were isolated from one-day-old pups with enzymatic digestion as described in detail previously. NCFs were seeded and maintained in high-glucose (25 mmol/L) Dulbecco's modified Eagle's medium (DMEM) (Invitrogen Mount Waverley, Vic, Australia) in the presence of 1% antibiotic/antimycotic (AB/AM) and 10% fetal bovine serum (FBS) (JRH biosciences, Kansas, USA). NCFs were used at passage 2 [31]. Purified NCMs were seeded (1000 cells/mm^2) in 6-well plates and then maintained in serum-free DMEM (Invitrogen, NY, USA) supplemented with insulin and transferrin as described previously (4). Bromodeoxyuridine was included for the first 3 days. 50 mmol/L KCl was added to the medium to prevent spontaneous contraction characteristic of the plated NCMs.
NCFs collagen synthesis assays were performed as described previously. Briefly, NCFs plated at a density of 50,000 cells/well in 12-well plate and incubated overnight. NCFs were then serum starved for 24 hours in high-glucose DMEM. […]
For collagen synthesis, 1 μCi of [^3H]-Proline was added to each well and incubated for further 48 hours before harvest. Cells were harvested by precipitation with 10% TCA on ice for 30 min, before solubilisation with 0.75 mL of 1 mol/L NaOH overnight at 4° C. The samples were then neutralized with 1 mol/L HCl and ^3H level were counted with 10 ml scintillation fluid on a beta-counter to determine [^3H]-proline incorporation.

With `COc1ccc(/C=C/C(=O)Nc2ccccc2C(=O)O)cc1OC` [Analogue 1, (E)-2-[[3-(3,4-Dimethoxyphenyl)-1-oxo-2-propenyl]amino]benzoic acid, reference compound], in series [1], the “proline incorporation after TGF-β stimulation” value was “significantly reduce”. Moreover, in [2] (50 mg/kg/day gavage), the ALT came to 40.5 ± 4.5, the Body weight is recorded as 315 ± 19 Gram, the “Plasma Creatinine” value was 43 ± 0.5 µmol/L and the “Plasma Urate” value is given as under 0.09 mmol/L. In [2] (100 mg/kg/day gavage), the ALT was 41 ± 1, the Body weight is 298 ± 21 Gram, the “Plasma Creatinine” value was found to be 43 ± 3.5 µmol/L and the “Plasma Urate” value was under 0.09 mmol/L. In addition, in series [2] (200 mg/kg/day gavage), the ALT is 41 ± 4.6, the Body weight was found to be 293 ± 10 Gram, the “Plasma Creatinine” value is 45 ± 1 µmol/L and the “Plasma Urate” value was under 0.09 mmol/L. Besides, in series [2] (400 mg/kg/day gavage), the ALT amounted to 40 ± 5, the Body weight was 314 ± 13 Gram, the “Plasma Creatinine” value was 49 ± 7.8 µmol/L and the “Plasma Urate” value is under 0.09 mmol/L. Also, the “TGF-β-induced collagen synthesis in cardiac fibroblasts” value in series [3] is given as “attenuate”. Besides, the drug-induced adverse effect entry in series [4] is “hyperbilirubinemia”.

Usually melting point stands for the temperature, or range, at which the solid turns liquid. `COc1ccc(/C=C/C(=O)Nc2ccccc2C(=O)O)cc1OC1CCCC1` [Analogue 29, (E)-2-{[3-(3-Cyclopentyloxy-4-methoxyphenyl)-1-oxo-2-propenyl]amino}benzoic acid] gave a melting point of 211 to 217 °C. In addition, the inhibition at 1 µM in [5] (Rattus norvegicus, Mesangial cell, @ 1 μM, 5 ng/mL TGF-β1, 44 h, read-out: Mesangial Cell Assay TGF-β % reduction of TGF-β stimulation_proline inc.) was about 8%. The inhibition at 3 µM in [5] (Rattus norvegicus, Mesangial cell, @ 3 μM, 5 ng/mL TGF-β1, 44 h, read-out: Mesangial Cell Assay TGF-β % reduction of TGF-β stimulation_proline inc.) worked out at 40%. The inhibition at 10 µM in series [5] (Rattus norvegicus, Mesangial cell, @ 10 μM, 5 ng/mL TGF-β1, 44 h, read-out: Mesangial Cell Assay TGF-β % reduction of TGF-β stimulation_proline inc.) is about 90%. In addition, the Collagen synthesis entry in [5] (inhibition ranked against tranilast (T) or FT11) is “>FT11”. Further, the “Effect on mesangial cell appearance” value in series [6] (@ 10 μM) is given as “Sparse @”. In addition, the “Effect on mesangial cell appearance” value in series [6] (@ 100 μM) is recorded as “Stressed @”. In series [7], the “Mesangial cell MTT Assay TGF-β” value was “Suppressed”. In addition, the “NCF TGF-β Collagen Synthesis” value in [8] (@ 10 μM) is 10% @ 10 μM. Further, the “NCF TGF-β Collagen Synthesis” value in series [8] (@ 30 μM) is reported as 25% @ 30 μM.

Values taken from patent US9561201B2, “Therapeutic compounds” (Fibrotech Therapeutics Pty Ltd, priority 2006, dated 2017).
